US8951972B2, “FGFR1 extracellular domain combination therapies for lung cancer” (Five Prime Therapeutics, Inc., priority 2010, dated 2015)

Assays:
[1] = tested on: H1703 Non-Small Cell Lung Cancer (NSCLC) Xenograft; assay: H1703 non-small cell lung cancer (NSCLC) xenograft model, tumor volume; assay type: in vivo, SCID mice; settings: day 38; FGFR1-ECD.339-Fc 15 mg/kg i.p. 2x/wk; docetaxel 25 mg/kg i.p. 1x/3 wk x 2 doses
Description: Human non-small cell lung cancer (NSCLC) cell line H1703 was used as the tumor model and was purchased from ATCC (Manassas, Va.; Cat. No. CRL-5889).
Docetaxel was purchased from Toronto Research Chemicals (North York, Ontario, Canada; cat. No. D494420) and formulated in H2O containing 5% Tween 80 and 5% glucose. Docetaxel was administered i.p. at 25 mg/kg (equivalent to about 75 mg/m^2 in a human) once every three weeks for two doses. In combination groups, FGFR1-ECD.339-Fc and docetaxel were either given concurrently or sequentially with FGFR1-ECD.339-Fc given one day before docetaxel or vice versa. Human albumin was purchased from Grifols USA (Los Angeles, Calif.; Cat. No. NDC 61953-0002-1), formulated in PBS at 3 mg/mL and was used as negative control at 300 μg/100 μL/mouse (15 mg/kg).
The tumor volume was measured by external caliper to determine the greatest longitudinal diameter (length) and the greatest transverse diameter (width). The tumor volume was then calculated using the following formula: Tumor volume (mm^3)=(length×width^2)/2

[2] = tested on: A549 Non-Small Cell Lung Cancer (NSCLC) Xenograft; assay: A549 non-small cell lung cancer (NSCLC) xenograft model, tumor volume; assay type: in vivo, SCID mice
Description: Six weeks old female SCID mice were purchased from Charles River Laboratories (Wilmington, Mass.) and were acclimated for 1 week before the start of the study. […] The cells were implanted subcutaneously over the right flank of the mice at 5×10^6 cells/100 μl/mouse. One day after tumor implantation, mice were randomized according to body weight at 10 mice per group.
The tumor volume and body weight of the mice were monitored twice a week throughout each study.
The tumor volume of each group of mice at the end of each study was analyzed by one-way ANOVA followed by Tukey's test.
Cisplatin was purchased from Sigma-Aldrich (St. Louis, Mo.; Cat. No. P4394), formulated in 0.9% saline, and administered i.p. at 3.5 mg/kg ([…]) once per week for six weeks. Saline was used as negative control and was administered i.p. at 100 μl per mouse twice a week for six weeks.
On day 42, when the average tumor volume in the vehicle group reached 1300 mm^3, the mice were euthanized by isoflurane inhalation and cervical dislocation.
FGFR1-ECD.339-Fc was formulated in 0.9% Saline for Injection USP at 3 mg/ml. […] FGFR1-ECD.339-Fc was administered intraperitoneally (i.p.) at 15 mg/kg twice per week for 5 weeks. Paclitaxel was administered i.p. at 18 mg/kg on days 8, 12, and 15.
When the average tumor volume in vehicle control group reached ˜500 mm^3, the mice were euthanized by isoflurane inhalation and cervical dislocation.
FGFR1-ECD.339-Fc was formulated in 0.9% Saline for Injection USP at 3 mg/ml. 5-FU was purchased from Sigma-Aldrich (St. Louis, Mo.; Cat. No. F6627) and was initially dissolved in dimethyl sulfoxide (DMSO, Sigma-Aldrich, St. Louis, Mo.; Cat. No. D8418-50) at the concentration of 50 mg/ml as a stock solution. The stock solution was further diluted in 0.9% Sodium Chloride Injection USP to 6.6 mg/ml (for 33 mg/kg dosing). FGFR1-ECD.339-Fc was administered intraperitoneally (i.p.) at 15 mg/kg twice per week for four weeks. 5-FU was administered i.p. at 33 mg/kg twice a week for three weeks.
Mice were euthanized on day 31 by isoflurane inhalation and cervical dislocation.
FGFR1-ECD.339-Fc was formulated in PBS at 3 mg/ml and administered intraperitoneally (i.p.) at 15 mg/kg (300 μg/100 μl/mouse) twice a week for four weeks. Docetaxel was administered i.p. at 3 mg/kg or 10 mg/kg twice per week for four weeks.
Mice in the albumin control group were euthanized on day 32 by isoflurane inhalation and cervical dislocation when the average tumor volume in the group reached 1000 mm^3.

[3] = tested on: A549 Non-Small Cell Lung Cancer (NSCLC) Xenograft; assay: as above; assay type: in vivo, SCID mice; settings: day 28; FGFR1-ECD.339-Fc 15 mg/kg and carboplatin 25 mg/kg i.p. 2x/wk from day 7 x 3 wks; paclitaxel 30 mg/kg i.p. 2x/wk from day 8 x 3 wks
[4] = tested on: Colo205 Colon Cancer Xenograft; assay: Colo205 colon cancer xenograft model, tumor volume; assay type: in vivo, SCID mice; settings: day 17; FGFR1-ECD.339-Fc 15 mg/kg i.p. 2x/wk x 4 wks; 5-FU and leucovorin 10 mg/kg each i.p. daily x 5 days; oxaliplatin 15 mg/kg twice per week
[5] = tested on: JIMT-1 Breast Cancer Xenograft; assay: JIMT-1 breast cancer xenograft model, tumor volume; settings: Day 21; FGFR1-ECD.339-Fc 15 mg/kg i.p. 2x/wk; doxorubicin 0.5 mg/kg 1x/wk; paclitaxel 30 mg/kg 2x/wk; each x 5 wks from day 7
Description: Six week old female SCID mice were purchased from Charles River Laboratories (Wilmington, Mass.) and were acclimated for 1 week before the start of the study. […] The cells were cultured for ten passages in DMEM+10% FBS, 1% L-glutamine, and 1% penicillin/streptomycin at 37° C. in a humidified atmosphere with 5% CO2. When the cultured cells reached 85-90% confluence, cells were harvested and resuspended in cold Ca^2+ and Mg^2+ free phosphate buffered saline (PBS) containing 50% Matrigel at 5×10^7 cells per milliliter. The cells were implanted subcutaneously over the right flank of the mice at 5×10^6 cells/100 μl/mouse. One day after tumor implantation, mice were randomized according to body weight at 10 mice per group.
FGFR1-ECD.339-Fc was formulated in 0.9% Saline for Injection USP at 3 mg/ml and administered intraperitoneally (i.p.) at 15 mg/kg (300 μg/100 μl/mouse) twice per week for five weeks beginning on day 7. […] Paclitaxel was administered at 30 mg/kg (60 μg/200 μL per mouse) twice per week for five weeks beginning on day 7.
The tumor volume and body weight of the mice were monitored twice a week throughout the study.
Mice were euthanized on day 42 by isoflurane inhalation and cervical dislocation.

[6] = day 42, FGFR1-ECD.339-Fc 20 mg/kg i.p. 2x/wk x 6 wks, cisplatin 3.5 mg/kg i.p. 1x/wk x 6 wks

FGFR1-ECD.339-Fc: human FGFR1 extracellular domain ending at amino acid 339 fused to an Fc; SEQ ID NO: 6 (mature form)
Fractional tumor volume (FTV), each treatment alone [1]: 0.68 | Mean Tumor volume mm^3(±SD) [1]: 557 (±151) mm^3 | Tumor growth inhibition (%) [1]: 33% | Fractional tumor volume (FTV), each treatment alone ([2]; day 31, FGFR1-ECD.339-Fc 15 mg/kg i.p. 2x/wk x 4 wks, 5-FU 33 mg/kg i.p. 2x/wk x 3 wks): 0.84 | Fractional tumor volume (FTV), each treatment alone ([2]; day 31, FGFR1-ECD.339-Fc 15 mg/kg i.p. 2x/wk x 5 wks, paclitaxel 18 mg/kg i.p. days 8, 12, 15): 0.84 | Fractional tumor volume (FTV), each treatment alone ([2]; day 32, FGFR1-ECD.339-Fc 15 mg/kg i.p. 2x/wk x 4 wks, docetaxel 3 mg/kg i.p. 2x/wk x 4 wks): 0.54 | Fractional tumor volume (FTV), each treatment alone ([2]; day 32, FGFR1-ECD.339-Fc 15 mg/kg i.p. 2x/wk x 4 wks, docetaxel 10 mg/kg i.p. 2x/wk x 4 wks): 0.54 | Fractional tumor volume (FTV), each treatment alone ([2]; day 38, FGFR1-ECD.339-Fc 15 mg/kg i.p. 2x/wk x 5 wks, paclitaxel 18 mg/kg i.p. days 8, 12, 15): 0.89 | Fractional tumor volume (FTV), each treatment alone ([2]; day 39, FGFR1-ECD.339-Fc 15 mg/kg i.p. 2x/wk (start day 1), vincristine 1 mg/kg i.p. days 8, 15, 22): 0.50 | Mean Tumor volume mm^3(±SD) [2, 6]: 807 (±431) mm^3 | Tumor growth inhibition (%) [2, 6]: 39% | Fractional tumor volume (FTV) relative to control, each treatment alone ([2]; day 42, FGFR1-ECD.339-Fc 20 mg/kg, cisplatin 3.5 mg/kg): 0.60 | Fractional tumor volume (FTV), each treatment alone ([2]; day 46, FGFR1-ECD.339-Fc 15 mg/kg i.p. 2x/wk (start day 1), vincristine 1 mg/kg i.p. days 8, 15, 22): 0.40 | Fractional tumor volume (FTV), each treatment alone ([2]; day 70, FGFR1-ECD.339-Fc 20 mg/kg i.p. 2x/wk (start day 19), vincristine 1.5 mg/kg i.p. days 27, 34, 41): 0.71 | Fractional tumor volume (FTV), each treatment alone [3]: 0.58 | Fractional tumor volume (FTV), each treatment alone [4]: 0.77 | Fractional tumor volume (FTV), each treatment alone [5]: 0.93
